Results published in ChEMBL document CHEMBL4417621, “Methods to identify tas2r modulators” (2013).
Values belong to the compound of their own block, whether it stands above or below them. Calls of active or inactive are those of the source. The calls are words filed in the database; no cut-off is given here.

Columns and labels:
[1] = target: T1, Taste receptor type 2 member 16 (Homo sapiens) (UniProt Q9NYV7); assay: Activation of full-length human TAS2R16 expressed in HEK293T/Galpha16-gustducin 44 cells assessed as effect on calcium flux by measuring deltaF/F0 ratio at 10 mM by Fluo-4 dye based FLIPR assay; type: functional, cell-based
T1 sequence (whole entry): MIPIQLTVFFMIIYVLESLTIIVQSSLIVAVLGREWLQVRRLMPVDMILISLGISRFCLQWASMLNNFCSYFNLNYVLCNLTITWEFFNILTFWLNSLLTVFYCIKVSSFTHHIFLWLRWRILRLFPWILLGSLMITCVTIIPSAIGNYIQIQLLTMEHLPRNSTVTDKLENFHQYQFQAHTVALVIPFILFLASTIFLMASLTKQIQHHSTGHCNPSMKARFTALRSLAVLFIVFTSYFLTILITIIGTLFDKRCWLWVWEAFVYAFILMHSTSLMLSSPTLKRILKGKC

[2] = target: T1, Taste receptor type 2 member 16 (Homo sapiens); assay: Activation of full-length human TAS2R16 expressed in HEK293T/Galpha16-gustducin 44 cells assessed as effect on calcium flux by measuring deltaF/F0 ratio at 5 mM by Fluo-4 dye based FLIPR assay; type: functional, cell-based
[3] = target: T1, Taste receptor type 2 member 16 (Homo sapiens); assay: Activation of full-length human TAS2R16 expressed in HEK293T/Galpha16-gustducin 44 cells assessed as effect on calcium flux by measuring deltaF/F0 ratio at 2.5 mM by Fluo-4 dye based FLIPR assay; type: functional, cell-based
[4] = target: T1, Taste receptor type 2 member 16 (Homo sapiens); assay: Activation of full-length human TAS2R16 expressed in HEK293T/Galpha16-gustducin 44 cells assessed as effect on calcium flux by measuring deltaF/F0 ratio at 1.25 mM by Fluo-4 dye based FLIPR assay; type: functional, cell-based
[5] = target: T1, Taste receptor type 2 member 16 (Homo sapiens); assay: Activation of full-length human TAS2R16 expressed in HEK293T/Galpha16-gustducin 44 cells assessed as effect on calcium flux by measuring deltaF/F0 ratio at 0.625 mM by Fluo-4 dye based FLIPR assay; type: functional, cell-based
[6] = target: T1, Taste receptor type 2 member 16 (Homo sapiens); assay: Activation of full-length human TAS2R16 expressed in HEK293T/Galpha16-gustducin 44 cells assessed as effect on calcium flux by measuring deltaF/F0 ratio at 0.3125 mM by Fluo-4 dye based FLIPR assay; type: functional, cell-based
[7] = target: T1, Taste receptor type 2 member 16 (Homo sapiens); assay: Activation of full-length human TAS2R16 expressed in HEK293T/Galpha16-gustducin 44 cells assessed as effect on calcium flux by measuring deltaF/F0 ratio at 0.1563 mM by Fluo-4 dye based FLIPR assay; type: functional, cell-based
[8] = target: T1, Taste receptor type 2 member 16 (Homo sapiens); assay: Activation of full-length human TAS2R16 expressed in HEK293T/Galpha16-gustducin 44 cells assessed as effect on calcium flux by measuring deltaF/F0 ratio at 0.0781 mM by Fluo-4 dye based FLIPR assay; type: functional, cell-based
[9] = target: T1, Taste receptor type 2 member 16 (Homo sapiens); assay: Activation of full-length human TAS2R16 expressed in HEK293T/Galpha16-gustducin 44 cells assessed as effect on calcium flux by measuring deltaF/F0 ratio at 0.0391 mM by Fluo-4 dye based FLIPR assay; type: functional, cell-based
[10] = target: T2, Taste receptor type 2 member 16 (Homo sapiens, UniProt Q9NYV7); assay: Activation of full-length human TAS2R16 expressed in HEK293T/Galpha16-gustducin 44 cells assessed as stimulation of calcium flux by measuring deltaF/F0 ratio by Fluo-4 dye based FLIPR assay; type: functional, cell-based
T2 sequence (Q9NYV7 whole entry): T1 sequence (whole entry)

[11] = target: T3, Taste receptor type 2 member 31 (Homo sapiens) (UniProt P59538); assay: Antagonist activity at full-length human TAS2R44 expressed in HEK293T/Galpha16-gustducin 44 cells assessed as effect on calcium flux by measuring deltaF/F0 ratio at 25 uM in presence of 100 mM sucralose by Fluo-4 dye based FLIPR assay (reference value: 0.352 +/- 0.030); type: functional, cell-based
T3 sequence (whole entry): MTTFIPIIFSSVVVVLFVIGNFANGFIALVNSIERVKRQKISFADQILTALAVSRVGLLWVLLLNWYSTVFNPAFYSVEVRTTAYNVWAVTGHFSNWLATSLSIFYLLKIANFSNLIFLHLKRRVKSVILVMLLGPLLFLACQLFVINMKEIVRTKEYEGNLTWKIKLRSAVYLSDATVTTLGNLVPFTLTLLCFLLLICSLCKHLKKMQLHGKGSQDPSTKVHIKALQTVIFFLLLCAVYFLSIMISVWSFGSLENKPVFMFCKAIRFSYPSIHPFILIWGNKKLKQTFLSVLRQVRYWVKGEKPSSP

[12] = target: T3, Taste receptor type 2 member 31 (Homo sapiens); assay: Antagonist activity at full-length human TAS2R44 expressed in HEK293T/Galpha16-gustducin 44 cells assessed as effect on calcium flux by measuring deltaF/F0 ratio at 25 uM in presence of 50 mM sucralose by Fluo-4 dye based FLIPR assay (reference value: 0.192 +/- 0.011); type: functional, cell-based
[13] = target: T3, Taste receptor type 2 member 31 (Homo sapiens); assay: Antagonist activity at full-length human TAS2R44 expressed in HEK293T/Galpha16-gustducin 44 cells assessed as effect on calcium flux by measuring deltaF/F0 ratio at 25 uM in presence of 25 mM sucralose by Fluo-4 dye based FLIPR assay (reference value: 0.110 +/- 0.019); type: functional, cell-based
[14] = target: T3, Taste receptor type 2 member 31 (Homo sapiens); assay: Antagonist activity at full-length human TAS2R44 expressed in HEK293T/Galpha16-gustducin 44 cells assessed as effect on calcium flux by measuring deltaF/F0 ratio at 25 uM in presence of 12.5 mM sucralose by Fluo-4 dye based FLIPR assay (reference value: 0.051 +/- 0.004); type: functional, cell-based
[15] = target: T3, Taste receptor type 2 member 31 (Homo sapiens); assay: Antagonist activity at full-length human TAS2R44 expressed in HEK293T/Galpha16-gustducin 44 cells assessed as effect on calcium flux by measuring deltaF/F0 ratio at 25 uM in presence of 6.25 mM sucralose by Fluo-4 dye based FLIPR assay (reference value: 0.027 +/- 0.029); type: functional, cell-based
[16] = target: T3, Taste receptor type 2 member 31 (Homo sapiens); assay: Antagonist activity at full-length human TAS2R44 expressed in HEK293T/Galpha16-gustducin 44 cells assessed as effect on calcium flux by measuring deltaF/F0 ratio at 25 uM in presence of 3.125 mM sucralose by Fluo-4 dye based FLIPR assay (reference value: 0.030 +/- 0.042); type: functional, cell-based
[17] = target: T3, Taste receptor type 2 member 31 (Homo sapiens); assay: Antagonist activity at full-length human TAS2R44 expressed in HEK293T/Galpha16-gustducin 44 cells assessed as effect on calcium flux by measuring deltaF/F0 ratio at 25 uM in presence of 1.5625 mM sucralose by Fluo-4 dye based FLIPR assay (reference value: 0.042 +/- 0.039); type: functional, cell-based
[18] = target: T3, Taste receptor type 2 member 31 (Homo sapiens); assay: Antagonist activity at full-length human TAS2R44 expressed in HEK293T/Galpha16-gustducin 44 cells assessed as effect on calcium flux by measuring deltaF/F0 ratio at 25 uM in presence of 0.7813 mM sucralose by Fluo-4 dye based FLIPR assay (reference value: 0.038 +/- 0.042); type: functional, cell-based
[19] = target: T3, Taste receptor type 2 member 31 (Homo sapiens); assay: Antagonist activity at full-length human TAS2R44 expressed in HEK293T/Galpha16-gustducin 44 cells assessed as effect on calcium flux by measuring deltaF/F0 ratio at 25 uM in presence of 0.3906 mM sucralose by Fluo-4 dye based FLIPR assay (reference value: 0.046 +/- 0.048); type: functional, cell-based
[20] = test system: HEK-293T; assay: Effect on calcium flux in HEK293T/Galpha16-gustducin 44 cells assessed as effect on calcium flux by measuring deltaF/F0 ratio at 25 uM in presence of 100 mM sucralose by Fluo-4 dye based FLIPR assay (reference value: -0.179 +/- 0.023); type: functional, Homo sapiens
[21] = target: T1, Taste receptor type 2 member 16 (Homo sapiens); assay: Antagonist activity at full-length human TAS2R16 expressed in HEK293T/Galpha16-gustducin 44 cells assessed as effect on calcium flux by measuring deltaF/F0 ratio at 25 uM in presence of 10 mM phenyl-beta-glucopyranoside by Fluo-4 dye based FLIPR assay; type: functional, cell-based
[22] = target: T1, Taste receptor type 2 member 16 (Homo sapiens); assay: Antagonist activity at full-length human TAS2R16 expressed in HEK293T/Galpha16-gustducin 44 cells assessed as effect on calcium flux by measuring deltaF/F0 ratio at 25 uM in presence of 5 mM phenyl-beta-glucopyranoside by Fluo-4 dye based FLIPR assay; type: functional, cell-based
[23] = target: T1, Taste receptor type 2 member 16 (Homo sapiens); assay: Antagonist activity at full-length human TAS2R16 expressed in HEK293T/Galpha16-gustducin 44 cells assessed as effect on calcium flux by measuring deltaF/F0 ratio at 25 uM in presence of 2.5 mM phenyl-beta-glucopyranoside by Fluo-4 dye based FLIPR assay; type: functional, cell-based
[24] = target: T1, Taste receptor type 2 member 16 (Homo sapiens); assay: Antagonist activity at full-length human TAS2R16 expressed in HEK293T/Galpha16-gustducin 44 cells assessed as effect on calcium flux by measuring deltaF/F0 ratio at 25 uM in presence of 1.25 mM phenyl-beta-glucopyranoside by Fluo-4 dye based FLIPR assay; type: functional, cell-based
[25] = target: T1, Taste receptor type 2 member 16 (Homo sapiens); assay: Antagonist activity at full-length human TAS2R16 expressed in HEK293T/Galpha16-gustducin 44 cells assessed as effect on calcium flux by measuring deltaF/F0 ratio at 25 uM in presence of 0.625 mM phenyl-beta-glucopyranoside by Fluo-4 dye based FLIPR assay; type: functional, cell-based
[26] = target: T1, Taste receptor type 2 member 16 (Homo sapiens); assay: Antagonist activity at full-length human TAS2R16 expressed in HEK293T/Galpha16-gustducin 44 cells assessed as effect on calcium flux by measuring deltaF/F0 ratio at 25 uM in presence of 0.3125 mM phenyl-beta-glucopyranoside by Fluo-4 dye based FLIPR assay; type: functional, cell-based
[27] = target: T1, Taste receptor type 2 member 16 (Homo sapiens); assay: Antagonist activity at full-length human TAS2R16 expressed in HEK293T/Galpha16-gustducin 44 cells assessed as effect on calcium flux by measuring deltaF/F0 ratio at 25 uM in presence of 0.1563 mM phenyl-beta-glucopyranoside by Fluo-4 dye based FLIPR assay; type: functional, cell-based
[28] = target: T1, Taste receptor type 2 member 16 (Homo sapiens); assay: Antagonist activity at full-length human TAS2R16 expressed in HEK293T/Galpha16-gustducin 44 cells assessed as effect on calcium flux by measuring deltaF/F0 ratio at 25 uM in presence of 0.0781 mM phenyl-beta-glucopyranoside by Fluo-4 dye based FLIPR assay; type: functional, cell-based
[29] = target: T1, Taste receptor type 2 member 16 (Homo sapiens); assay: Antagonist activity at full-length human TAS2R16 expressed in HEK293T/Galpha16-gustducin 44 cells assessed as effect on calcium flux by measuring deltaF/F0 ratio at 25 uM in presence of 0.0391 mM phenyl-beta-glucopyranoside by Fluo-4 dye based FLIPR assay; type: functional, cell-based
[30] = target: T4, Taste receptor type 2 member 1 (Homo sapiens) (UniProt Q9NYW7); assay: Antagonist activity at full-length human TAS2R1 expressed in HEK293T/Galpha16-gustducin 44 cells assessed as inhibition of sucralose-induced calcium flux at 25 uM by Fluo-4 dye based FLIPR assay; type: functional, cell-based
T4 sequence (whole entry): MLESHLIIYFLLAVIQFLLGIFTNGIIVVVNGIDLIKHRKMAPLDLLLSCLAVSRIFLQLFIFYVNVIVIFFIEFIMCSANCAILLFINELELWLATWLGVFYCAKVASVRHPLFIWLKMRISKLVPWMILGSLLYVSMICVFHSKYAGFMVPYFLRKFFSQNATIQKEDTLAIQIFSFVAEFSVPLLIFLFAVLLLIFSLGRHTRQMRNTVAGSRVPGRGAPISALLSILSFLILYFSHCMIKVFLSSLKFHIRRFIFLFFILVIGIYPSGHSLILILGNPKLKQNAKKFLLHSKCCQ

[31] = species: Homo sapiens; assay: Inhibition of 3 mM sucralose-induced bitter sensitivity in bitter sensitive human panelists tasting solution containing 3 mM sucralose with 13 ppm test compound; type: functional, organism-based
[32] = target: T1, Taste receptor type 2 member 16 (Homo sapiens); assay: Antagonist activity at full-length human TAS2R16 expressed in HEK293T/Galpha16-gustducin 44 cells assessed as inhibition of P-beta-G-induced calcium flux by measuring P-beta-G EC50 at 25 uM by Fluo-4 dye based FLIPR assay; type: functional, cell-based

Ratio [1]: 2.88
Ratio [2]: 2.69
Ratio [3]: 2.58
Ratio [4]: 2.36
Ratio [5]: 2.28
Ratio [6]: 1.81
Ratio [7]: 0.926
Ratio [8]: 0.213
Ratio [9]: 0.012
EC50 [10]: 210 µM
SMILES: OC[C@H]1O[C@@H](Oc2ccccc2)[C@H](O)[C@@H](O)[C@@H]1O

Ratio [11]: 0.107
Ratio [12]: -0.025
Ratio [13]: -0.035
Ratio [14]: -0.015
Ratio [15]: 0
Ratio [16]: 0.005
Ratio [17]: 0.016
Ratio [18]: 0.01
Ratio [19]: 0.011
Ratio [21]: 2.83
Ratio [22]: 2.65
Ratio [23]: 2.48
Ratio [24]: 2.37
Ratio [25]: 2.14
Ratio [26]: 1.55
Ratio [27]: 0.702
Ratio [28]: 0.108
Ratio [29]: -0.013
inhibition [30]: Active
SMILES: CC1=CCC(C/C=C/C(=O)O)C1(C)C (centres undefined)
Ratio [20]: -0.175
inhibition [31]: Active

inhibition [30]: inactive
inhibition [32]: inactive
SMILES: CC1CCC(CCCC(N)=O)C1(C)C (centres undefined)
Activity ([20]; Homo sapiens): inactive
